Laboratory results: patent US12678438B2, “Treatment of cancer with CDK inhibitors” (THE TRUSTEES OF THE UNIVERSITY OF PENNSYLVANIA, priority 2019, dated 2026)

What was measured:
[1] = system: AR-negative DU145 xenografts; assay: DU145 mouse xenograft; type: in vivo; settings: 10 mg/kg b.i.d., four weeks
Method: In vivo efficacy studies were performed in accordance with protocols approved by the Institutional Animal Care and Use Committee (IACUC) at the University of Pennsylvania and in compliance with all regulatory standards. Four to five-week-old male NOD SCID gamma mice (Jackson Lab, 005557) were procured from Jackson Laboratory. In the VCaP experiment, 2×10^6 VCaP prostate cancer cells suspended in 80 μL of RPMI-1640 with 50% Matrigel (BD Biosciences) were implanted subcutaneously into the dorsal flank of the mice. The animals were castrated when the tumor volumes reached approximately 150 mm^3. […] Tumor growth was recorded using digital calipers and tumor volumes were estimated using the formula (π/6) (L×W^2), where L=length and W=width of tumor. Body weight during the study was also monitored. At the end of the treatment regimen the mice were sacrificed and were extracted for further analysis.
Xenograft tumor pieces were fixed in 4% of formaldehyde for 48 h and paraffin embedded. Paraffin embedded sections from the tumors of treated and untreated mice were deparaffinized, rehydrated and subjected to epitope retrieval stained with a phospho-MED1 antibody (1:4000/1:2000), anti-PSA antibody (1:1000), anti-Ki67 (1:500), or anti-cleaved caspase3 antibody (1:1000) followed by peroxidase-based detection and counterstaining with hematoxylin using the Leica Bond Rxm system. Photographs were taken on a Leica DMI6000B inverted light and fluorescent microscope with a 20× objective. images were assessed and quantified in ImageJ.

[2] = target: CDK7 (Homo sapiens, UniProt P50613); assay: Luminescence-based CDK7 kinase activity on MED1 peptide; type: biochemical; settings: varying concentration of THZ1
Chain of CDK7 (P50613 whole entry): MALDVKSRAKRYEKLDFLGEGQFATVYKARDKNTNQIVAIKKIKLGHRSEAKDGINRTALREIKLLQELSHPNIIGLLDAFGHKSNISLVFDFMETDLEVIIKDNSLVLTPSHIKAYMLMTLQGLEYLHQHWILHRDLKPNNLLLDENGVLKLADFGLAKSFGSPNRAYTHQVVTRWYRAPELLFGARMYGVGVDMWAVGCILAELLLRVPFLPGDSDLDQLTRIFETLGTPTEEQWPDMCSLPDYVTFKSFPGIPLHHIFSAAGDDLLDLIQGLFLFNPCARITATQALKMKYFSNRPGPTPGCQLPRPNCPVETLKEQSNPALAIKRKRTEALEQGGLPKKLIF
Chain of CDK7 (P51946 whole entry partner): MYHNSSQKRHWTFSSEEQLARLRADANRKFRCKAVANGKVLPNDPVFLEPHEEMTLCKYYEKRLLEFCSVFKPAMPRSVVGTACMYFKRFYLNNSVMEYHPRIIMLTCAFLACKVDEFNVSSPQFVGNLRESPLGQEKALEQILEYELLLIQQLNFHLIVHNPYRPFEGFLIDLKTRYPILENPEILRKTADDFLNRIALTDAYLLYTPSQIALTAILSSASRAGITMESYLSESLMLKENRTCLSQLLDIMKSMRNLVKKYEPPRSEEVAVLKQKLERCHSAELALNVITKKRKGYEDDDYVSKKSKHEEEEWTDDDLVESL
Chain of CDK7 (P51948 whole entry partner): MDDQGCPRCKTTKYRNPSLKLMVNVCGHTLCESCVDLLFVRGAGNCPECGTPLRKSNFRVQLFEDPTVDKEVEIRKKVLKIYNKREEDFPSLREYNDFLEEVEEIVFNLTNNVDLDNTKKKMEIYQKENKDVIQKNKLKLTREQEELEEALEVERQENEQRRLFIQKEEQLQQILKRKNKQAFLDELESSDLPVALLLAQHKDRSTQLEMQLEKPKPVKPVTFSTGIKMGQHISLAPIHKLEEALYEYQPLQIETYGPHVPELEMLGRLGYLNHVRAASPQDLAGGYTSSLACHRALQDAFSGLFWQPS
Method: For luminescence-based CDK7 kinase activity analysis wild type MED1-peptide “[sequence]” and mutant MED1-peptide “[sequence]” (GenScript, U2051EC280_1, U2051EC280_3) were used. Following the above protocol, briefly after 60 min incubation, post addition of CAK complex, ADP-GLOW reagent (Promega, V6930) was thawed and 25 ul of the reagent was added to each well, the plate was covered with aluminum foil and incubated at room temperature (RT) for 45 min. After the incubation Kinase-Detection reagent (BPS Bioscience, 79603) was thawed and 50 ul of the reagent was added to each well and incubated for another 45 min at RT under dark conditions. After 45 min incubation luminescence was measured using the microplate reader (Note: in luminescence-based kinase assay, CAK-complex+CTD-peptide (BPS Bioscience)+ATP was used as a positive control, were as CAK complex+Human MED1 protein without ATP was used as a negative control to subtract the background readings).

[3] = system: MED1 and AR recruitment to the chromatin; assay: ChIP-seq of genome-wide MED1 and AR binding; type: cell-based, human; settings: DHT-treated VCaP and LNCaP, THZ1
Method: ChIP was performed using iDeal ChIP-seq Kit for Transcription Factors (Diagenode, C01010170) according to manufacturer's protocol. In brief, the cells were crosslinked with 1% formaldehyde in culture medium for 10 min at room temperature. Cross-linking was terminated by the addition of 1/10 volume 1.25 M glycine for 5 min at room temperature followed by cell lysis and sonication (Bioruptor, Diagenode), resulting in an average chromatin fragment size of 200 bp. Chromatin equivalent to 5×10^6 cells was isolated and incubated with 10 μg antibody overnight at 4° C. (MED1, H3-acetyl K27, AR, and IgG (Diagenode). ChIP-seq libraries were prepared from the ChIP-enriched DNA samples using the TruSeq ChIP Library Preparation Kit (Illumina, IP-202-1012, IP-202-1024) and protocol. In brief, ChIP-enriched DNA (1-10 ng) was converted to blunt-ended fragments. A single A-base was added to fragment ends followed by ligation of Illumina adaptors. The adaptor-modified DNA fragments were enriched by PCR using the Illumina Barcode primers and Phusion DNA polymerase. PCR products were size selected using 3% NuSieve agarose gels (Lonza) followed by gel extraction using QIAEX II reagents (QIAGEN). Libraries were quantified with the Bioanalyzer 2100 (Agilent) and sequenced on the Illumina NextSeq 500 Sequencer (75 nucleotide read length).
Sequencing reads were quality checked with FASTQC (www.bioinformatics.babraham.ac.uk/projects/fastqc) and aligned to the GRCh37 (release 27) genome using the STAR v2.5.1 aligner with default settings. PCR duplicate reads in the aligned bam files were removed using samtools, bam files were converted to CPM normalized bigwig tracks using deeptools, and viewed using the Integrated Genomics Viewer or the UCSC genome browser. Single end reads were extended up to the fragment length (200 bp) along the read direction.
The enrichment peaks for the various transcription factors and histone marks were computed using MACS2, with default settings. Regions found to ubiquitously enriched across a number of next-generation sequencing experiments, also known as the blacklisted peaks (sites.google.com/site/anshulkundaje/projects/blacklists), were excluded in all subsequent analysis.

[4] = system: chromatin-bound p-MED1/MED1; assay: Chromatin-bound protein extraction and immunoblot; type: cell-based, human; settings: DHT-stimulated LNCaP, 6 h; THZ1 100 nM, enzalutamide 5 μM
Method: Chromatin bound protein extraction was performed following the protocol described in Pawar et al. Briefly, 10 million cells were collected and washed with DPBS, and were resuspended in 250 μl Buffer A (10 mM HEPES pH 7.9, 10 mM KCl, 1.5 mM MgCl2, 0.34 M sucrose, 10% glycerol, 1 mM DTT) supplemented with 0.1% TritonX-100 and incubated on ice for 10 min. The nuclei pellet was collected by centrifugation at 1300×g for 5 min at 4° C., washed in Buffer A and centrifuged again with the same settings. The nuclear pellet was then resuspended in Buffer B (3 mM EDTA, 0.2 mM EGTA, 1 mM DTT) and incubated on ice for 30 min. The chromatin pellet was collected by centrifugation at 1700×g for 5 min at 4° C., washed in Buffer B and centrifuged again with the same settings. The proteins were incubated on ice in Buffer B with 150 mM NaCl for 20 min and centrifuged at 1700×g for 5 min to remove proteins soluble in 150 mM salt concentrations. The pellet was then incubated in Buffer B with 300 mM NaCl on ice for 20 min and centrifuged again at 1700×g to obtain the final chromatin pellet. The chromatin pellet was dissolved in sample buffer, sonicated for 15 seconds, and boiled at 95° C. for 10 min. Samples were analyzed using Immunoblot analysis as described previously. All buffers were supplemented with Pierce protease inhibitor and Halt protease & phosphatase inhibitors.

Compound: CN(C)C/C=C/C(=O)Nc1ccc(C(=O)Nc2cccc(Nc3ncc(Cl)c(-c4c[nH]c5ccccc45)n3)c2)cc1 [THZ1]
- tumor Ki-67 ([1]; vs vehicle): lower Ki-67
- tumor apoptosis ([1]; vs vehicle): increased apoptosis
- tumor p-MED1 levels ([1]; vs vehicle): reduced p-MED1 levels
- tumor growth ([1]; castrated mice): tumor growth inhibition
- CDK7-mediated phosphorylation of the T1457 wildtype peptide [2]: inhibited by THZ1 treatment in a dose-dependent manner
- genome-wide AR recruitment (ChIP-seq) [3]: significantly limited AR recruitment
- genome-wide MED1 recruitment (ChIP-seq) [3]: blocked MED1 recruitment entirely
- chromatin-bound levels of p-MED1/MED1 [4]: complete loss in the chromatin-bound levels of p-MED1/MED1
